Source: patent US20260263429A1, “INHIBITORS OF CA 2+/CALMODULIN-DEPENDENT PROTEIN KINASE II (CAMKII) THAT DO NOT INHIBIT LONG-TERM POTENTIATION (LTP) INDUCTION AND THERAPEUTIC USES THEREOF” (The Regents of the University of Colorado, A Body Corporate, priority 2023, published 2026)

Key:
[1] = test system: LTP at the hippocampal CA3 to CA1 synapse; assay: LTP induction by HFS, field recordings in acute hippocampal slices of wildtype mice; format: cell-based, mouse; details: tatCN21 5 μM; AS283 10 or 30 μM; 15 minutes before, washed out 5 minutes after LTP induction
Experimental: Long term potentiation (LTP) is induced by high frequency stimulation (HFS; 2×100 Hz. 10 sec interval, see Materials and Methods) of CA3-CA1 Schaffer collateral pathways in WT mice and is observed by an increase in slope of field excitatory post synaptic potentials (fEPSPs) that persists after the stimulus is removed. When testing the effect of certain agents on LTP induction (i.e., AS283 or tatCN21), slices were incubated with the agents for 15 minutes before LTP induction and washed out 5 minutes after LTP induction.
Hippocampal slice preparation. WT and mutant mouse hippocampal slices were prepared using P56-70 mice. Isoflurane anesthetized mice were rapidly decapitated, and the brain was dissected in ice-cold high sucrose solution containing 220 mM sucrose, 12 mM MgSO4, 10 mM glucose, 0.2 mM CaCl2), 0.5 mM KCl, 0.65 mM NaH2PO4, 13 mM
NaHCO3, and 1.8 mM ascorbate. […]
Extracellular field recordings. […] Data were analyzed using WinLTP software with slope calculated as the initial rise from 10 to 60% of response peak. […] Responses were recorded for 60 min after HFS. Change in slope was calculated as a ratio of the average slope of the 20 min baseline (before HFS). Bar graphs of % fEPSP slope were calculated by averaging the 50-60-minute timepoints post HFS and normalized to baseline.

[2] = test system: paCaMKII T286A movement to synapses and spine growth; assay: Photoactivation of paCaMKII T286A in hippocampal neurons (structural LTP); format: cell-based; details: AS283 10 μM; AS397
Source text: In this Example, two sets of pharmacogenetic tools were used in combination with the photoactivable paCaMKII to test whether structural CaMKII functions are not only the necessary but also the sufficient CaMKII functions in LTP. Specifically, in one exemplary method, hippocampal neurons were examined for sLTP (e.g., the LTP-associated growth of dendritic spines) in response to direct photoactivation of paCaMKII without any other stimulation that could trigger additional signaling pathways. […] In both cases, suppressing enzymatic CaMKII activity while allowing or enhancing GluN2B binding enabled induction of structural LTP. […]
paCaMKII stimulation in hippocampal neurons. […] Neurons were then imaged 15 minutes after stimulation and assessed for CaMKII synaptic enrichment and dendritic spine growth.
Image analysis of hippocampal neurons. […] 2D maximum intensity projection images were then generated and analyzed using a custom-build program in ImageJ. The program utilizes combinatorial thresholding to mask regions of the cell that contain high intensity PSD-95 puncta (the post-synaptic side of excitatory synapses in dendritic spines) and regions of the dendritic shaft that contain no fluorescence intensity of PSD-95. […] Spine growth was assessed by measuring the changes in mCherry cell fill fluorescence intensity within dendritic spine ROIs (F/F0).

[3] = test system: synaptic localization of CaMKII F89G / K42M; assay: Synaptic localization of GFP-CaMKII F89G or K42M mutants in rat hippocampal cultures, basal and cLTP; format: cell-based; details: 10 μM NM-PP1, basal and cLTP
Experimental: This conclusion also predicts that the LTP stimulus-induced movement of CaMKII to excitatory synapses should be (i) impaired in the CaMKII F89G mutant; but (ii) normalized by pharmacogenetic rescue with NM-PP1. Indeed, both predictions were observed experimentally (FIGS. 4D-4E).
Chemical LTP stimulation. Chemical LTP (CL TP) was induced with 100 μM glutamate and 10 μM glycine for 45 seconds. Treatments were followed by washout in 5 volumes of fresh ACSF. For biochemistry experiments, neurons were treated with 1 μM TTX to silence neurons prior to treatment with cLTP.
Image analysis of hippocampal neurons. […] 2D maximum intensity projection images were then generated and analyzed using a custom-build program in ImageJ. The program utilizes combinatorial thresholding to mask regions of the cell that contain high intensity PSD-95 puncta (the post-synaptic side of excitatory synapses in dendritic spines) and regions of the dendritic shaft that contain no fluorescence intensity of PSD-95. As a measure of synaptic enrichment, the ratio of mean CaMKII fluorescence intensity of the PSD-95 mask to the mean CaMKII fluorescence intensity in the dendritic shaft mask is measured. Spine growth was assessed by measuring the changes in mCherry cell fill fluorescence intensity within dendritic spine ROIs (F/F0).

Row | Structure (SMILES) | LTP induction in wildtype mouse slices [1] | CaMKII movement to synapses after photoactivation of paCaMKII T286A [2] | spine growth (structural LTP) after photoactivation of paCaMKII T286A [2] | impaired synaptic localization of CaMKII F89G mutant [3]
1 | NCCNc1cccc(-c2ccnc3[nH]c4ccccc4c23)c1 [AS283] | failed to block LTP induction | robust CaMKII movement | spine growth | –
2 | CC(C)(C)n1nc(Cc2cccc3ccccc23)c2c(N)ncnc21 [NM-PP1] | – | – | – | rescued
